Two compounds from ChEMBL document CHEMBL3227994, “Novel application of proton nuclear magnetic resonance spectroscopy in the identification of 2'-chloronordiazepam metabolites in the dog” (J Med Chem, 1979) can be followed below.

Data set [1] in a line: Drug metabolism in Beagle dog urine assessed as formation of 2'-chloro-4'-hydroxy nordiazepam at 10 mg/kg, po after 4 days by TLC analysis. As to conditions: in vivo, 96 h. Details: dose 10 mg/kg, route oral. It is filed as ADME, organism-based, Canis lupus familiaris.
A short description of data set [2]: Drug excretion in Beagle dog urine assessed as nonconjugated form of 2'-chloro-9-hydroxy nordiazepam at 10 mg/kg, po after 4 days by two-dimensional TLC analysis. It is filed as ADME, organism-based, Canis lupus familiaris. Details: dose 10 mg/kg, route oral. As to conditions: in vivo, 96 h.
Data set [3] can be described thus: Drug excretion in Beagle dog urine assessed as conjugated form of 2'-chloro-4'-hydroxy nordiazepam at 10 mg/kg, po after 4 days by two-dimensional TLC analysis. Details: dose 10 mg/kg, route oral. Conditions: in vivo, 96 h. It is filed as ADME, organism-based, Canis lupus familiaris.
Data set [4] is described as follows: Drug excretion in dog urine assessed as conjugated form of lorazepam at 10 mg/kg, po. It is filed as ADME, organism-based, Canis lupus familiaris. On the set-up: dose 10 mg/kg, route oral. As to conditions: in vivo.
A short description of data set [5]: Drug excretion in Beagle dog feces assessed as conjugated form of compound at 10 mg/kg, po after 4 days by two-dimensional TLC analysis. It is filed as ADME, organism-based, Canis lupus familiaris. On the set-up: dose 10 mg/kg, route oral. As to conditions: in vivo, 96 h.
Data set [6] can be described thus: Drug excretion in Beagle dog feces assessed as conjugated form of 2'-chloro-9-hydroxy nordiazepam at 10 mg/kg, po after 4 days by two-dimensional TLC analysis. It is filed as ADME, organism-based, Canis lupus familiaris. As to conditions: in vivo, 96 h. Details: dose 10 mg/kg, route oral.
Data set [7] in a line: Drug excretion in Beagle dog feces assessed as conjugated form of lorazepam at 10 mg/kg, po after 4 days by two-dimensional TLC analysis. It is filed as ADME, organism-based, Canis lupus familiaris. On the set-up: dose 10 mg/kg, route oral. As to conditions: in vivo, 96 h.
Data set [8] is described as follows: Drug excretion in Beagle dog feces assessed as conjugated form of 2'-chloro-4'-hydroxy nordiazepam at 10 mg/kg, po after 4 days by two-dimensional TLC analysis. It is filed as ADME, organism-based, Canis lupus familiaris. On the set-up: dose 10 mg/kg, route oral. Conditions: in vivo, 96 h.
Data set [9] in a line: Drug metabolism in Beagle dog urine assessed as formation of lorazepam at 10 mg/kg, po after 4 days by TLC analysis. It is filed as ADME, organism-based, Canis lupus familiaris. On the set-up: dose 10 mg/kg, route oral. Conditions: in vivo, 96 h.
Data set [10] can be described thus: Drug excretion in Beagle dog feces assessed as nonconjugated form of compound at 10 mg/kg, po after 4 days by two-dimensional TLC analysis. It is filed as ADME, organism-based, Canis lupus familiaris. On the set-up: dose 10 mg/kg, route oral. As to conditions: faeces, read-out: Drug excretion.
Data set [11] in a line: Drug metabolism in Beagle dog urine assessed as formation of 2'-chloro-9-hydroxy nordiazepam at 10 mg/kg, po after 4 days by TLC analysis. It is filed as ADME, organism-based, Canis lupus familiaris. Details: dose 10 mg/kg, route oral. As to conditions: in vivo, 96 h.
A short description of data set [12]: Drug excretion in dog urine assessed as conjugated form of lorazepam at 10 mg/kg, iv. As to conditions: in vivo. It is filed as ADME, organism-based, Canis lupus familiaris. On the set-up: dose 10 mg/kg, route intravenous.
Data set [13] in a line: Drug excretion in Beagle dog feces assessed as nonconjugated form of 2'-chloro-4'-hydroxy nordiazepam at 10 mg/kg, po after 4 days by two-dimensional TLC analysis. On the set-up: dose 10 mg/kg, route oral. It is filed as ADME, organism-based, Canis lupus familiaris. Conditions: in vivo, 96 h.
Data set [14] can be described thus: Drug excretion in Beagle dog urine assessed as nonconjugated form of lorazepam at 10 mg/kg, po after 4 days by two-dimensional TLC analysis. It is filed as ADME, organism-based, Canis lupus familiaris. On the set-up: dose 10 mg/kg, route oral. Conditions: in vivo, 96 h.
Data set [15] in a line: Drug excretion in Beagle dog urine assessed as conjugated form of lorazepam at 10 mg/kg, po after 4 days by two-dimensional TLC analysis. It is filed as ADME, organism-based, Canis lupus familiaris. On the set-up: dose 10 mg/kg, route oral. As to conditions: in vivo, 96 h.
Data set [16] in a line: Drug excretion in Beagle dog urine at 10 mg/kg, po measured within 3 days by liquid scintillation spectrophotometric analysis. It is filed as ADME, organism-based, Canis lupus familiaris. Details: dose 10 mg/kg, route oral. As to conditions: in vivo, 72 h.
The nature of data set [17]: Drug excretion in Beagle dog urine assessed as conjugated form of 2'-chloro-9-hydroxy nordiazepam at 10 mg/kg, po after 4 days by two-dimensional TLC analysis. Details: dose 10 mg/kg, route oral. It is filed as ADME, organism-based, Canis lupus familiaris. Conditions: in vivo, 96 h.
The nature of data set [18]: Drug excretion in Beagle dog feces assessed as nonconjugated form of 2'-chloro-9-hydroxy nordiazepam at 10 mg/kg, po after 4 days by two-dimensional TLC analysis. It is filed as ADME, organism-based, Canis lupus familiaris. On the set-up: dose 10 mg/kg, route oral. Conditions: in vivo, 96 h.
Data set [19] in a line: Drug excretion in Beagle dog urine at 10 mg/kg, po measured within 6 days by liquid scintillation spectrophotometric analysis. It is filed as ADME, organism-based, Canis lupus familiaris. As to conditions: in vivo, 144 h. Details: dose 10 mg/kg, route oral.
A short description of data set [20]: Drug excretion in Beagle dog urine assessed as nonconjugated form of compound at 10 mg/kg, po after 4 days by two-dimensional TLC analysis. It is filed as ADME, organism-based, Canis lupus familiaris. On the set-up: dose 10 mg/kg, route oral. Conditions: read-out: Drug excretion.
Data set [21] can be described thus: Drug excretion in Beagle dog feces assessed as nonconjugated form of lorazepam at 10 mg/kg, po after 4 days by two-dimensional TLC analysis. It is filed as ADME, organism-based, Canis lupus familiaris. As to conditions: in vivo, 96 h. Details: dose 10 mg/kg, route oral.
Data set [22] is described as follows: Drug excretion in Beagle dog feces at 10 mg/kg, po measured within 6 days by liquid scintillation spectrophotometric analysis. It is filed as ADME, organism-based, Canis lupus familiaris. On the set-up: dose 10 mg/kg, route oral. As to conditions: in vivo, 144 h.
Data set [23] in a line: Drug excretion in Beagle dog urine assessed as nonconjugated form of 2'-chloro-4'-hydroxy nordiazepam at 10 mg/kg, po after 4 days by two-dimensional TLC analysis. It is filed as ADME, organism-based, Canis lupus familiaris. Details: dose 10 mg/kg, route oral. As to conditions: in vivo, 96 h.
Data set [24] in a line: Retention time of the compound. It is filed as physicochemical.

For the compound `O=C1CN=C(c2ccccc2Cl)c2cc(Cl)ccc2N1` [DELORAZEPAM], the values for the Drug metabolism in data set [1], in [9] and in data set [11] were 1.6 mg.equiv, 10.7 mg.equiv and 1.7 mg.equiv, respectively. For the same compound, the Drug excretion in data set [2] stood at 1.1 %ID; in data set [3], 2.8 %ID; in data set [4], 13 %ID; in [5] it was 3.8 %ID; in [6], 7.3 %ID; in [7], 19.9 %ID. For the same compound, the Drug excretion in data set [8] is on record as 5.3 %ID; in data set [12] it was 16 %ID; in data set [13], 1.5 %ID; in data set [14], 0.4 %ID; in data set [15], 15.3 %ID; in data set [16], 58 %ID. The Drug excretion in [17] turned out to be 2.5 %ID; in [18] it was 3.7 %ID; in data set [19], 60.5 %ID; in data set [21], 4.2 %ID; in [22], 28.5 %ID; in [23], 1 %ID. Also, the dose excreted at 96 h in data set [10] was 2.7%; in [20], 1.1%.

`O=C1Nc2ccc(Cl)cc2C(c2ccccc2Cl)=NC1O` (centres undefined) [LORAZEPAM] came in with a Retention_time in data set [24] of 3.8 min.
